According to US20100215631A1, “ANTI-INFLAMMATORY COMPOSITION COMPRISING GLYCINE AND LACTOFERRIN AND THE USE THEREOF” (priority 2006, published 2010):

Tests used:
Balb/C mice = test: Zymosan-induced ear swelling in an inflammatory mouse model (Example 1); type: in vivo; conditions: daily gavage 0.1 mg lactoferrin and/or 50 mg glycine, versus non-supplemented mice
Method: Balb/C mice (8 weeks of age, Charles River, Maastricht, The Netherlands) were randomly assigned two control and three test groups and supplemented daily for three days with 0.1 mg lactoferrin (DMV, Veghel, The Netherlands), 50 mg glycine (Sigma, Zwijndrecht, The Netherlands) or a combination of both components (test groups 3, 4 and 5 respectively) or vehicle (control groups 1 and 2) was administered by gavage. At day two of the supplementation ear thickness was measured using a micrometer (Mitutoyo Digimatic, Veenendaal, The Netherlands) Subsequently 25 μl 0.5% zymosan (Sigma) in PBS (group 2-5) or vehicle (group 1) was injected subcutaneously in both ears. Ear thickness was measured 3, 6 and 24 hours (example 1) after injection after which the animals were sacrificed.
In mice injected in the ear with zymosan, lactoferrin (LF) and glycine (Gly) supplemented mice show a highest decrease in ear swelling when compared to non-supplemented mice, see Table 1. A clear synergistic effect of LF and Gly is observed.

TNF-α producing cells = test: Ex-vivo ELISpot of TNF-α producing spleen cells from supplemented mice with zymosan-induced ear inflammation (Example 2); type: in vivo; conditions: 1 μg/ml LPS, after three days of oral supplementation
Method: The spleen was removed and pushed through a cell strainer. Red blood cell lysis was performed in 5 ml of could lysis buffer (4.15 g NH4Cl, 0.5 g KHCO3 and 18.6 mg Na2EDTA in 1 liter water at pH 7,3) for 5 minutes. Cells were washed twice in could RPMI (Invitrogen, Merelbeke, Belgium) and after centrifugation diluted to a concentration of 1.10^7 cells/ml. TNF-α producing cells were detected by ELISpot assay in the absence or presence of 1 μg/ml lipopolysaccharide (Sigma) (example 2).
Spleen cells were collected from mice with a zymosan-induced inflammation in the ear after three days of oral supplementation with water (=control), lactoferrin (LF), glycine or a combination of LF and glycine. The number of TNF-α producing cells was determined using an ELISpot assay. LF and glycine inhibit the LPS stimulated number of TNF producing cells by 92% and 97% respectively (back to not zymosan treated control levels). The combination of glycine and lactoferrin inhibited the number of TNF-α positive cells 50% below the […] injected control. This unexpected high rate of inhibition makes the combination of glycine with lactoferrin an excellent choice for the treatment of inflammatory diseases.

## NCC(=O)O [Glycine, glycine]
Balb/C mice; 3 hrs after zymosan injection in ears
  Decrease in ear swelling: 10 ± 16
Balb/C mice; 6 hrs after zymosan injection in ears
  Decrease in ear swelling: 28 ± 20
TNF-α producing cells
  Inhibition of the LPS stimulated number of TNF producing cells: 97%
